The source made the active and inactive calls. The calls are words filed in the database; no cut-off is given here.
What was measured:
[1] = Toxicity in BALB/c mouse xenografted with mouse 4T1 cells assessed as effect on spleen morphology at 15 mg/kg, ip administered every 2 days starting from day 7 post-inoculation and measured on day 24 by Hematoxyin-eosin staining based analysis; type: organism-based; conditions: in vivo, 432 h, time 18 day
[2] = Toxicity in BALB/c mouse xenografted with mouse 4T1 cells assessed as effect on body weight at 15 mg/kg, ip administered every 2 days starting from day 7 post-inoculation and measured on day 24; type: organism-based; conditions: in vivo, 432 h, time 18 day
[3] = Toxicity in BALB/c mouse xenografted with mouse 4T1 cells assessed as effect on liver morphology at 15 mg/kg, ip administered every 2 days starting from day 7 post-inoculation and measured on day 24 by Hematoxyin-eosin staining based analysis; type: organism-based; conditions: in vivo, 432 h, time 18 day
[4] = system: 4T1; experiment: Antitumor activity against mouse 4T1 cells xenografted in BALB/c mouse assessed as tumor growth inhibition at 15 mg/kg, ip administered every 2 days starting from day 7 post-inoculation and measured on day 24; type: functional, organism-based; conditions: time 18.0 day
[5] = Toxicity in BALB/c mouse xenografted with mouse 4T1 cells assessed as effect on heart morphology at 15 mg/kg, ip administered every 2 days starting from day 7 post-inoculation and measured on day 24 by Hematoxyin-eosin staining based analysis; type: organism-based; conditions: in vivo, 432 h, time 18 day
[6] = Toxicity in BALB/c mouse xenografted with mouse 4T1 cells assessed as effect on kidney morphology at 15 mg/kg, ip administered every 2 days starting from day 7 post-inoculation and measured on day 24 by Hematoxyin-eosin staining based analysis; type: organism-based; conditions: in vivo, 432 h, time 18 day
[7] = system: HeLa; experiment: Downregulation of HIF-1 alpha expression in human HeLa cells at 100 to 150 umol/L incubated under hypoxia conditions for 4 hrs in presence of proteasome inhibitor, MG132 by Western blot analysis; type: functional, cell-based; conditions: dose 100-150 µmol/L
[8] = system: 4T1; experiment: Downregulation of HIF-1alpha protein expression in tumor tissue of BALB/c mouse xenografted with mouse 4T1 cells at 15 mg/kg, iv administered every 2 days starting from day 7 post-inoculation and measured on day 24 by immunofluorescence analysis; type: functional, organism-based; conditions: time 18.0 day
[9] = system: HeLa; experiment: Downregulation of HIF-1 alpha expression in human HeLa cells at 50 to 150 umol/L incubated under normoxia conditions for 4 hrs in presence of CoCl2 by Western blot analysis; type: functional, cell-based; conditions: dose 50-150 µmol/L
[10] = system: HeLa; experiment: Downregulation of HIF-1alpha expression in human HeLa cells at 50 to 150 umol/L incubated under hypoxia condition for 4 hrs by immunofluorescence analysis; type: functional, cell-based; conditions: dose 50-150 µmol/L
[11] = system: HeLa; experiment: Cytotoxicity against human HeLa cells assessed as cell viability at 6.3 to 150 umol/L incubated under normoxic conditions for 24 hrs by MTT assay; type: cell-based; conditions: dose 6.3-150 µmol/L
[12] = system: HeLa; experiment: Downregulation of HIF-1 alpha expression in human HeLa cells at 50 to 150 umol/L incubated under hypoxia conditions for 4 hrs by Western blot analysis; type: functional, cell-based; conditions: dose 50-150 µmol/L
[13] = system: HeLa; experiment: Inhibition of cell migration in human HeLa cells at 10 to 50 umol/L incubated under hypoxia condition for 36 hrs by wound healing assay; type: functional, cell-based; conditions: dose 10-50 µmol/L
[14] = system: HUVEC; experiment: Inhibition of angiogenesis in human HUVEC cells assessed as disruption of tube formation at 150 umol/L incubated under hypoxia condition for 6 hrs by Matrigel based analysis; type: functional, cell-based; conditions: dose 150.0 µmol/L
[15] = Toxicity in BALB/c mouse xenografted with mouse 4T1 cells assessed as effect on kidney morphology at 15 mg/kg, iv administered every 2 days starting from day 7 post-inoculation and measured on day 24 by Hematoxyin-eosin staining based analysis; type: organism-based; conditions: in vivo, 432 h, time 18 day
[16] = system: HeLa; experiment: Downregulation of HIF-1 alpha expression in human HeLa cells assessed as half life of the protein at 150 umol/L incubated under CoCl2-stimulated hypoxia conditions for 4 hrs followed by incubation with compound and protein translation inhibitor, CHX under normoxia conditions for 240 mins by Western blot analysis (reference value: 33.4 mins); type: functional, cell-based; conditions: dose 150.0 µmol/L
[17] = Toxicity in BALB/c mouse xenografted with mouse 4T1 cells assessed as effect on heart morphology at 15 mg/kg, iv administered every 2 days starting from day 7 post-inoculation and measured on day 24 by Hematoxyin-eosin staining based analysis; type: organism-based; conditions: in vivo, 432 h, time 18 day
[18] = Toxicity in BALB/c mouse xenografted with mouse 4T1 cells assessed as effect on spleen morphology at 15 mg/kg, iv administered every 2 days starting from day 7 post-inoculation and measured on day 24 by Hematoxyin-eosin staining based analysis; type: organism-based; conditions: in vivo, 432 h, time 18 day
[19] = biological target: T1, Hypoxia-inducible factor 1-alpha (Homo sapiens, UniProt Q16665); experiment: Inhibition of HIF-1alpha in human HeLa cells transfected with HRE-driven firefly luciferase gene pretreated with compound followed by incubation under normoxic condition for 1 hr followed by hypoxic condition for 12 hrs by dual luciferase reporter gene assay; type: cell-based
[20] = Toxicity in BALB/c mouse xenografted with mouse 4T1 cells assessed as effect on liver morphology at 15 mg/kg, iv administered every 2 days starting from day 7 post-inoculation and measured on day 24 by Hematoxyin-eosin staining based analysis; type: organism-based; conditions: in vivo, 432 h, time 18 day
[21] = system: MCF7; experiment: Downregulation of HIF-1alpha expression in human MCF7 cells at 50 to 150 umol/L incubated under hypoxia condition for 4 hrs by Western blot analysis; type: functional, cell-based; conditions: dose 50-150 µmol/L
[22] = system: HeLa; experiment: Antiinvasive activity in human HeLa cells assessed as inhibition of cell invasion at 50 to 150 umol/L incubated under hypoxia condition for 36 hrs by transwell invasion assay; type: functional, cell-based; conditions: dose 50-150 µmol/L
[23] = system: 4T1; experiment: Downregulation of HIF-1alpha expression in mouse 4T1 cells at 50 to 150 umol/L incubated under hypoxia condition for 4 hrs by Western blot analysis; type: functional, cell-based; conditions: dose 50-150 µmol/L
[24] = system: 4T1; experiment: Antitumor activity against mouse 4T1 cells xenografted in BALB/c mouse assessed as tumor growth inhibition at 15 mg/kg, iv administered every 2 days starting from day 7 post-inoculation and measured on day 24; type: functional, organism-based; conditions: time 18.0 day
[25] = Toxicity in BALB/c mouse xenografted with mouse 4T1 cells assessed as effect on body weight at 15 mg/kg, iv administered every 2 days starting from day 7 post-inoculation and measured on day 24; type: organism-based; conditions: in vivo, 432 h, time 18 day
[26] = system: HeLa; experiment: Downregulation of HIF-1beta expression in human HeLa cells at 50 to 150 umol/L incubated under hypoxia conditions for 4 hrs by western blot analysis; type: functional, cell-based; conditions: dose 50-150 µmol/L
[27] = system: HeLa; experiment: Inhibition of colony formation in human HeLa cells incubated under hypoxia condition for 10 days; type: functional, cell-based; conditions: dose 5-50 µmol/L, time 10.0 day
[28] = biological target: T1, Hypoxia-inducible factor 1-alpha; experiment: Inhibition of HIF-1alpha in human HeLa cells assessed as reduction in VEGF mRNA level incubated under hypoxia condition for 12 hrs by RT-PCR analysis; type: cell-based; conditions: dose 25-100 µmol/L
Target sequence in this assay (Q16665 whole entry, looked up): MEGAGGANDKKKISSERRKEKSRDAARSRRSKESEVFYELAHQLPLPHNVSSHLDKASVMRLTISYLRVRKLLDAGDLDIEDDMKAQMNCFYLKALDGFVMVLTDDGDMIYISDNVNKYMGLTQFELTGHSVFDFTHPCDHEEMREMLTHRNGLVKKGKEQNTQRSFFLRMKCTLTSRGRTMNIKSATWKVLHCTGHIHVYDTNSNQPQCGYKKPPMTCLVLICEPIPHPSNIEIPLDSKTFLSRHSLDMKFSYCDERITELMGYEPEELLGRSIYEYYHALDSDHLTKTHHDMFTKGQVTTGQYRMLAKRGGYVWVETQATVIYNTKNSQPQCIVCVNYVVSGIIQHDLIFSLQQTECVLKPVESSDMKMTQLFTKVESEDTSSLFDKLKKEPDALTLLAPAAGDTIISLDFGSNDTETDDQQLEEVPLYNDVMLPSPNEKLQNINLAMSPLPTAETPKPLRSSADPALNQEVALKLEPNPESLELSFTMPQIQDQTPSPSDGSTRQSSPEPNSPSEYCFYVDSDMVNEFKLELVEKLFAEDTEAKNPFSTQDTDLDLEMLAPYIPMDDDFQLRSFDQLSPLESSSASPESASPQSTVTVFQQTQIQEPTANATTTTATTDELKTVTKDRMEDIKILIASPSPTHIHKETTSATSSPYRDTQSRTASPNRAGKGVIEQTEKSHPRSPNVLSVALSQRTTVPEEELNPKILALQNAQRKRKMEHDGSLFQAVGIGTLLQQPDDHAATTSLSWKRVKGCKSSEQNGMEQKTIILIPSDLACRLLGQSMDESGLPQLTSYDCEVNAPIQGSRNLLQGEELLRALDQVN

[29] = system: HeLa; experiment: Cytotoxicity against human HeLa cells assessed as cell viability at 6.3 to 150 umol/L incubated under hypoxia condition for 24 hrs by MTT assay; type: cell-based; conditions: dose 6.3-150 µmol/L

For `C=CCNC1=C2C[C@@H](C)C[C@H](OC)[C@H](O)[C@@H](C)/C=C(\C)[C@H](OC(N)=O)[C@@H](OC)/C=C\C=C(/C)C(=O)NC(=CC1=O)C2=O` (stereo in doubt) [TANESPIMYCIN], the Activity [1] was “Non-Toxic”, the Activity [2] was “Non-Toxic” and the Activity [3] was “Non-Toxic”. The Activity [4] was “Active”, the Activity [5] was “Non-Toxic” and the Activity [6] was “Non-Toxic”.

In the case of `O=C(C(O)c1ccc(O)cc1)n1cc(-c2ccc(O)cc2)c(-c2ccc(O)cc2)c1` (stereo not given) [7-(R/S)-HYDROXYLAMELLARIN A], the inhibition [7] is reported as “Active”, the inhibition [8] is reported as “Active” and the inhibition [9] is reported as “Active”. The inhibition [10] was “Active”, the Activity [11] was “Non-Toxic” and the inhibition [12] was “Active”. For the same compound, the inhibition [13] was “Active”, the inhibition [14] was “Active” and the Activity [15] was “Non-Toxic”. For the same compound, the T1/2 [16] was 10.4 min, the Activity [17] was “Non-Toxic” and the Activity [18] was “Non-Toxic”. For the same compound, the IC50 [19] was 23 µM, the inhibition ([19]; time 13.0 hrs) was “Dose-Dependent Effect” and the Activity [20] was “Non-Toxic”. For the same compound, the inhibition [21] was “Active”, the Activity [22] was “Active” and the inhibition [23] was “Active”. The Activity [24] was “Active”, the Activity [25] was “Non-Toxic” and the inhibition [26] was “inactive”. For the same compound, the inhibition [27] was “Dose-Dependent Effect”, the inhibition [28] was “Dose-Dependent Effect” and the Activity [29] was “Non-Toxic”.

Source: ChEMBL document CHEMBL4808249, “Total synthesis and biological evaluation of 7-hydroxyneolamellarin A as hypoxia-inducible factor-1α inhibitor for cancer therapy” (Bioorg Med Chem Lett, 2021)
